Experimental data reported in PubChem BioAssay (NCI).
“And” between values parts separate entries of the source, which are not always exact repeats. Identical values can stand only once.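 Five concentrations, 48 hours, 96-well plates. GI50 is the concentration that inhibits growth by half. Definition used: TGI = concentration required for complete inhibition of growth.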

Assays:
Test in all cases: DTP human tumour cell line panel, 48 h
[1] = test system: 786-0 renal
[2] = test system: A498 renal
[3] = test system: A549 NSCLC
[4] = test system: ACHN renal
[5] = test system: BT-549 breast
[6] = test system: CAKI-1 renal
[7] = test system: CCRF-CEM leukemia
[8] = test system: COLO 205 colon
[9] = test system: DU-145 prostate
[10] = test system: EKVX NSCLC
[11] = test system: HCC-2998 colon
[12] = test system: HCT-116 colon
[13] = test system: HCT-15 colon
[14] = test system: HL-60(TB) leukemia
[15] = test system: HOP-62 NSCLC
[16] = test system: HOP-92 NSCLC
[17] = test system: HS 578T breast
[18] = test system: HT29 colon
[19] = test system: IGROV1 ovarian
[20] = test system: K-562 leukemia
[21] = test system: KM12 colon
[22] = test system: LOX IMVI melanoma
[23] = test system: M14 melanoma
[24] = test system: MALME-3M melanoma
[25] = test system: MCF7 breast
[26] = test system: MDA-MB-231 breast
[27] = test system: MDA-MB-435
[28] = test system: MOLT-4 leukemia
[29] = test system: NCI-H226 lung
[30] = test system: NCI-H23 lung
[31] = test system: NCI-H460 lung
[32] = test system: NCI-H522 lung
[33] = test system: NCI/ADR-RES ovarian
[34] = test system: OVCAR-3 ovarian
[35] = test system: OVCAR-4 ovarian
[36] = test system: OVCAR-5 ovarian
[37] = test system: OVCAR-8 ovarian
[38] = test system: PC-3 prostate
[39] = test system: RPMI-8226 leukemia
[40] = test system: RXF 393 renal
[41] = test system: SF-268 CNS
[42] = test system: SF-295 CNS
[43] = test system: SF-539 CNS
[44] = test system: SK-MEL-2 melanoma
[45] = test system: SK-MEL-28 melanoma
[46] = test system: SK-MEL-5 melanoma
[47] = test system: SK-OV-3 ovarian
[48] = test system: SN12C renal
[49] = test system: SNB-19 CNS
[50] = test system: SNB-75 CNS
[51] = test system: SR leukemia
[52] = test system: SW-620 colon
[53] = test system: T-47D breast
[54] = test system: TK-10 renal
[55] = test system: U251 CNS
[56] = test system: UACC-257 melanoma
[57] = test system: UACC-62 melanoma
[58] = test system: UO-31 renal

In the case of `CCC[C@H](N[C@H]1CCc2cc(F)cc(F)c2C1)C(=O)Nc1cn(C(C)(C)CNCC(C)(C)C)cn1`, the GI50 [1] is reported as 14.2 µM and 32.5 µM, the TGI [1] is reported as 49.8 µM and > 100 µM and the GI50 [2] is reported as 3.85 µM and 19.2 µM. For the same molecule, the TGI [2] was > 48.1 µM and 87.8 µM, the GI50 [3] was 23.1 µM and 21.5 µM and the TGI [3] was > 100 µM. The GI50 [4] was 26.3 µM and 23.2 µM, the TGI [4] was > 100 µM and the GI50 [5] was 14.9 µM and 21 µM. For the same molecule, the TGI [5] was 72.2 µM and 86.2 µM, the GI50 [6] was 7.69 µM and 4.75 µM and the TGI [6] was > 47.6 µM and 42.9 µM. For the same molecule, the GI50 [7] was 24.5 µM and 20.7 µM, the TGI [7] was > 100 µM and the GI50 [8] was 14 µM and 14.4 µM. The TGI [8] was 28.6 µM and 29.1 µM, the GI50 [9] was 34.8 µM and 35.9 µM and the TGI [9] was > 100 µM. For the same molecule, the GI50 [10] was 24.2 µM and 21.3 µM, the TGI [10] was > 100 µM and the GI50 [11] was 22.3 µM and 24.9 µM. For the same molecule, the TGI [11] was > 100 µM, the GI50 [12] was 7.27 µM and 10.9 µM and the TGI [12] was 23.3 µM and 28.6 µM. The GI50 [13] was 20.1 µM and 16.3 µM, the TGI [13] was > 100 µM and the GI50 [14] was 13.9 µM and 22.4 µM. For the same molecule, the TGI [14] was 43.3 µM and > 100 µM, the GI50 [15] was 33.3 µM and 53.3 µM and the TGI [15] was > 100 µM. For the same molecule, the GI50 [16] was 5.6 µM and 2.52 µM, the TGI [16] was 40.1 µM and 27.2 µM and the GI50 [17] was 16.3 µM and 13.1 µM. The TGI [17] was > 100 µM and 93.5 µM, the GI50 [18] was 10.4 µM and 11.9 µM and the TGI [18] was 29.5 µM and 28.8 µM. The GI50 [19] was 42.6 µM and 31.5 µM, the TGI [19] was > 100 µM and the GI50 [20] was 5.6 µM and 12.1 µM. The TGI [20] was > 100 µM, the GI50 [21] was 26.9 µM and 27 µM and the TGI [21] was > 100 µM. For the same molecule, the GI50 [22] was 15.5 µM and 16.1 µM, the TGI [22] was 34.3 µM and 35.9 µM and the GI50 [23] was 13.8 µM and 14.8 µM. The TGI [23] was 41.2 µM and 46.6 µM, the GI50 [24] was 11 µM and 12.9 µM and the TGI [24] was 28.5 µM and 29.5 µM. The GI50 [25] was 16.3 µM and 11.7 µM, the TGI [25] was > 64.4 µM and 83.7 µM and the GI50 [26] was 15.3 µM and 12.9 µM. For the same molecule, the TGI [26] was 45.3 µM and 41.2 µM, the GI50 [27] was 21.3 µM and 21.5 µM and the TGI [27] was > 100 µM. For the same molecule, the GI50 [28] was 6.93 µM and 7.84 µM, the TGI [28] was > 100 µM and the GI50 [29] was 26.5 µM and 14.1 µM. For the same molecule, the TGI [29] was > 100 µM and 92.9 µM, the GI50 [30] was 24.1 µM and 22.4 µM and the TGI [30] was > 100 µM. For the same molecule, the GI50 [31] was 25.3 µM and 21.6 µM, the TGI [31] was > 100 µM and the GI50 [32] was 23.9 µM and 13.4 µM. The TGI [32] was > 100 µM and 69.6 µM, the GI50 [33] was 17.2 µM and 20.6 µM and the TGI [33] was > 100 µM. For the same molecule, the GI50 [34] was 19.9 µM and 16.6 µM, the TGI [34] was > 100 µM and 77.6 µM and the GI50 [35] was 23.6 µM and 16.1 µM. The TGI [35] was > 100 µM, the GI50 [36] was 27 µM and 22.6 µM and the TGI [36] was > 100 µM. The GI50 [37] was 31.7 µM and 26 µM, the TGI [37] was > 100 µM and the GI50 [38] was 10.9 µM and 12.4 µM. For the same molecule, the TGI [38] was > 100 µM, the GI50 [39] was 9.57 µM and 11 µM and the TGI [39] was 48.8 µM and 69 µM. The TGI [40] was 39.9 µM and 13.4 µM, the GI50 [41] was 21.8 µM and 16.5 µM and the TGI [41] was > 100 µM. For the same molecule, the GI50 [42] was 23.6 µM and 18.5 µM, the TGI [42] was > 100 µM and the GI50 [43] was 19 µM and 27.8 µM. For the same molecule, the TGI [43] was 47.3 µM and > 100 µM, the GI50 [44] was 16.8 µM and 15.1 µM and the TGI [44] was 42 µM and 37.2 µM. For the same molecule, the GI50 [45] was 19 µM and 18 µM, the TGI [45] was 52.9 µM and 54.8 µM and the GI50 [46] was 15.2 µM and 13 µM. For the same molecule, the TGI [46] was 29.6 µM and 26.2 µM, the GI50 [47] was 37.2 µM and 40.3 µM and the TGI [47] was > 100 µM. For the same molecule, the GI50 [48] was 28.6 µM and 17.5 µM, the TGI [48] was > 100 µM and the GI50 [49] was 35.2 µM and 29.7 µM. The TGI [49] was > 100 µM, the GI50 [50] was 18.2 µM and 13.8 µM and the TGI [50] was > 100 µM. For the same molecule, the GI50 [51] was 19.3 µM and 14 µM, the TGI [51] was > 100 µM and 91.1 µM and the GI50 [52] was 23.7 µM and 23.3 µM. For the same molecule, the TGI [52] was > 100 µM, the GI50 [53] was 9.83 µM and 14.2 µM and the TGI [53] was > 100 µM. The GI50 [54] was 25.1 µM and 28.9 µM, the TGI [54] was > 100 µM and the GI50 [55] was 17.6 µM and 19.3 µM. The TGI [55] was > 100 µM, the GI50 [56] was 13.7 µM and 12.9 µM and the TGI [56] was 61.9 µM and 40.4 µM. The GI50 [57] was 16.8 µM, the TGI [57] was 45.8 µM and the GI50 [58] was 5.72 µM and 4.1 µM. For the same molecule, the TGI [58] was 30 µM and 27.7 µM.
